Test results taken from patent publication US10556883B2, “Benzenesulfonamide compounds, method for synthesizing same, and use thereof in medicine and cosmetics” (GALDERMA RESEARCH & DEVELOPMENT, priority 2016, dated 2020).

How the values were obtained:
[1] = tested on: TNFα secretion from LPS stimulated frozen Peripheral Blood Mononuclear Cells (PBMC); test: inhibition of TNFα secretion from LPS stimulated human PBMC (hPBMC assay); type: cell-based; conditions: LPS 1 μg/mL, overnight incubation, TNFα by HTRF
Method: Activity of the compounds was investigated using human peripheral blood mononuclear cells (hPBMC). This assay was designed to measure the inhibition of the TNFα secretion from LPS stimulated frozen Peripheral Blood Mononuclear Cells (PBMC) isolated from human blood. TNFα levels were measured using HTRF® Human TNFα kit (Cisbio #62TNFPEC) which is a rapid and quantitative sandwich immunoassay based on TR-FRET technology.
Frozen PBMC were quickly thawed, resuspended in culture medium (RPMI 10% inactivated FBS) and viable cells were seeded in 96-well plates (50,000 cells/well). […] After overnight incubation at 37° C., 10 μL of cell supernatant were mixed with 5 μL of each tagged anti-TNFα specific antibody as recommended by the supplier. After 2 hours of incubation at room temperature, the HTRF® signals were measured using a microplate reader (wavelengths: excitation=337 nm, first emission=620 nm, second emission=665 nm).

[2] = target: Recombinant Human catalytic domains of MMP1 (Homo sapiens (Human), UniProt P03956); test: MMP1 isolated enzyme assay, profluorescent peptidic substrate; type: biochemical; conditions: 10 minutes incubation at room temperature; read-out: MMP1 enz IC50
Source text: Activity of the compounds was investigated using MMP1 isolated enzyme.

[3] = target: Recombinant Human ADAM17 catalytic domain (Homo sapiens (Human), UniProt P78536); test: TACE (ADAM17) isolated enzyme assay, profluorescent peptidic substrate; conditions: read-out: TACE enz IC50; ADAM17 catalytic domain 500 nM, 40 μM substrate, two hours
Method: Activity of the compounds was investigated using TACE (ADAM17) isolated enzyme. […] Mca fluorescence was quenched by the Dpa group until cleavage by ADAM17 at the Ala-Val bond separates the two moieties.
The enzymatic reaction was performed in 384-well microplates with a final volume of 10 μL containing 1% DMSO. Recombinant Human ADAM17 catalytic domain (500 nM) was assayed with 40 μM of substrate and serial dilutions of tested inhibitors (from 10000 nM to 0.04 nM). After two hours of incubation at room temperature, the fluorescence was measured using a microplate reader (320/425 nm).
Data were normalized using the average of positive controls (enzyme with no inhibitor) and negative controls (no enzyme). IC50 were calculated using a four-parameters logistic model.

[4] = target: TACE enzyme (Homo sapiens (Human), UniProt P78536); conditions: WO 00/44709, page 251, table 10, example 61; cited from earlier work
Sequence of TACE enzyme (P78536 215-824): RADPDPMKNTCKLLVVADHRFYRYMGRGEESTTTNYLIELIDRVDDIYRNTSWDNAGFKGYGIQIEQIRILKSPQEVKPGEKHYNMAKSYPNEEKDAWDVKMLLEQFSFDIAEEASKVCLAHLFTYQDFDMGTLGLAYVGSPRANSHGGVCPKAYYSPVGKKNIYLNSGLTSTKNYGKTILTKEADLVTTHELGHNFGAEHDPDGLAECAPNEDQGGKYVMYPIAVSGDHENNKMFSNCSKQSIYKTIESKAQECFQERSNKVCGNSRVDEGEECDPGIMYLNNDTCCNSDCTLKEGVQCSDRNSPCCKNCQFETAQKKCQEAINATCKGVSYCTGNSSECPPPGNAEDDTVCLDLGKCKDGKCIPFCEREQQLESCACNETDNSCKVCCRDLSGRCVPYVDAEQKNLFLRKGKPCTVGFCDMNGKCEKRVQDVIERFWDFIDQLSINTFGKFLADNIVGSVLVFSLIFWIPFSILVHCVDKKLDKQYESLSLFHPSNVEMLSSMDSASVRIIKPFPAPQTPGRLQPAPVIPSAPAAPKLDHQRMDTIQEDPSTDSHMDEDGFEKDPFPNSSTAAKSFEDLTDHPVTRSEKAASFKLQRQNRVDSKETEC

Sequence of Recombinant Human catalytic domains of MMP1 (P03956 98-276): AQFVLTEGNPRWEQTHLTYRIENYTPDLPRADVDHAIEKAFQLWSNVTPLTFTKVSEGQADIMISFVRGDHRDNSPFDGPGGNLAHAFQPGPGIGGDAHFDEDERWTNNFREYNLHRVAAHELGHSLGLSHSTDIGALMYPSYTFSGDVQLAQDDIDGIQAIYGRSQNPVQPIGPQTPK
Sequence of Recombinant Human ADAM17 catalytic domain (P78536 223-474): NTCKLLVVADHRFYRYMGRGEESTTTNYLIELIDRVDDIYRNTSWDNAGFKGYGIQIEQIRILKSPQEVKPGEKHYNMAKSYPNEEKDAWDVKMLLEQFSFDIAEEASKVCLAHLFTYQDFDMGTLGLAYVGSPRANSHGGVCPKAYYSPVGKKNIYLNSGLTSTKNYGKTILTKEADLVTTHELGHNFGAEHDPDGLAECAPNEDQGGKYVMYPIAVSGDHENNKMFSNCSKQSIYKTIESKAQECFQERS

Structure (SMILES)	IC50 [1] [nM]	IC50 [2] [nM]	IC50 [3] [nM]	selectivity for the TACE enzyme compared with certain MMPs [4]
CCN1CCN(C(=O)N2CC(CC(=O)NO)(NS(=O)(=O)c3ccc(OCc4cc(C)nc5ccccc45)cc3)C2)CC1 [Example 28b, 2-(1-(4-ethylpiperazine-1-carbonyl)-3-((4-((2-methylquinolin-4-yl)methoxy)phenyl)sulfonamido)azetidin-3-yl)-N-hydroxyacetamide]	< 50	> 10000	5.6	
Cc1cc(COc2ccc(S(=O)(=O)NC3(C(=O)NO)CN(C(=O)CC4CCC4)C3)cc2)c2ccccc2n1 [Example 26f, 1-(2-cyclobutylacetyl)-N-hydroxy-3-((4-((2-methylquinolin-4-yl)methoxy)phenyl)sulfonamido)azetidine-3-carboxamide]	< 50	> 10000	11.4	
Cc1cc(COc2ccc(S(=O)(=O)NC3(CC(=O)NO)CN(C(=O)C(C)(C)N(C)C)C3)cc2)c2ccccc2n1 [Example 18, 2-(1-(2-(dimethylamino)-2-methylpropanoyl)-3-((4-((2-methylquinolin-4-yl)methoxy)phenyl)sulfonamido)azetidin-3-yl)-N-hydroxyacetamide]	< 50	> 10000	3.5	
CC1(C)SCCN(S(=O)(=O)c2ccc(OCC#CCO)cc2)[C@H]1C(=O)NO [Apratastat]				not selective
Cc1cc(COc2ccc(S(=O)(=O)NC3(CC(=O)NO)CN(C(=O)N4CCN(C)CC4)C3)cc2)c2ccccc2n1 [Example 10, N-hydroxy-2-(1-(4-methylpiperazine-1-carbonyl)-3-((4-((2-methylquinolin-4-yl)methoxy)phenyl)sulfonamido)azetidin-3-yl)acetamide]	< 50	> 10000	2.8	
Cc1cc(COc2ccc(S(=O)(=O)NC3(C(=O)NO)CN(C(=O)C(C)C)C3)cc2)c2ccccc2n1 [Example 7b, N-hydroxy-1-isobutyryl-3-((4-((2-methylquinolin-4-yl)methoxy)phenyl)sulfonamido)azetidine-3-carboxamide]	< 50	> 10000	5.2	
Cc1cc(COc2ccc(S(=O)(=O)NC3(CC(=O)NO)CN(C(=O)CC(C)(C)C)C3)cc2)c2ccccc2n1 [Example 11, 2-(1-(3,3-dimethylbutanoyl)-3-((4-((2-methylquinolin-4-yl)methoxy)phenyl)sulfonamido)azetidin-3-yl)-N-hydroxyacetamide]	< 50	> 10000	8.2	
Cc1cc(COc2ccc(S(=O)(=O)NC3(CC(=O)NO)CN(C(=O)C4CC4)C3)cc2)c2ccccc2n1 [Example 4c, 2-(1-(cyclopropanecarbonyl)-3-((4-((2-methylquinolin-4-yl)methoxy)phenyl)sulfonamido)azetidin-3-yl)-N-hydroxyacetamide]	< 50			
Cc1cc(COc2ccc(S(=O)(=O)N(C(C)C)C3(C(=O)NO)CN(C(=O)C(C)C)C3)cc2)c2ccccc2n1 [Example 23, N-hydroxy-1-isobutyryl-3-((N-isopropyl-4-((2-methylquinolin-4-yl)methoxy)phenyl)sulfonamido)azetidine-3-carboxamide]	500 to 1000			
Cc1cc(COc2ccc(S(=O)(=O)NC3(CC(=O)NO)CN(C(=O)CN4CCCCC4)C3)cc2)c2ccccc2n1 [Example 12, N-hydroxy-2-(3-((4-((2-methylquinolin-4-yl)methoxy)phenyl)sulfonamido)-1-(2-(piperidin-1-yl)acetyl)azetidin-3-yl)acetamide]	< 50			
CCC(CC)C(=O)N1CC(CC(=O)NO)(NS(=O)(=O)c2ccc(OCc3cc(C)nc4ccccc34)cc2)C1 [Example 4i, 2-(1-(2-ethylbutanoyl)-3-((4-((2-methylquinolin-4-yl)methoxy)phenyl)sulfonamido)azetidin-3-yl)-N-hydroxyacetamide]	< 50			
Cc1cc(COc2ccc(S(=O)(=O)NC3(CC(=O)NO)CN(C(=O)C4CCOCC4)C3)cc2)c2ccccc2n1 [Example 4g, N-hydroxy-2-(3-((4-((2-methylquinolin-4-yl)methoxy)phenyl)sulfonamido)-1-(tetrahydro-2H-pyran-4-carbonyl)azetidin-3-yl)acetamide]	< 50			
